{"source": "patent US8057829B2", "about": "“Methods for repelling insects using sesquiterpene hydrocarbons and their derivatives” (Sterling International Inc., priority 2008, dated 2011)", "key": {"[1]": {"test_system": "antennae of housefly, sand fly, and mosquitoes (Aedes aegypti, Aedes increpitus, Anopheles gambiae)", "test": "GC-EAD antennal responses to SPME samples of patchouli essential oil", "conditions": "component of patchouli essential oil SPME sample; response by one or more of the insects; FIG. 2", "description": "(§1) The following procedures were employed to test the EAD response of an insect antenna to a repellent compound. The GC-EAD technique provides an efficient tool for screening behaviorally active repellents. Several synthetic mixtures of potential insect repellent candidates, mostly sesquiterpene hydrocarbons and derivatives, were analyzed in splitless mode using a Varian CP-3800 GC equipped with a polar column (Innowax; 1.0 μm film thickness, 30 m×0.53 mm ID; J & W Scientific), and a 1:1 effluent splitter that allowed simultaneous flame ionization detection (FID) and EAD of the separated volatile compounds. Helium was used as the carrier gas, and the injector temperature was 220° C. The column temperature was 50° C. for 2 min, rising to 240° C. at 10° C./min, then held for 10 min. The outlet for the EAD was held in a humidified air stream flowing at 0.5 liter/min. over an antennal preparation. A glass capillary indifferent electrode filled with Beadle-Ephrussi Ringer, and grounded via a silver wire, was inserted into the severed insect's head with the antennae. A similar recording electrode connected to a high-impedance DC amplifier with automatic baseline drift compensation was placed in contact with the distal end of one antenna (Zhang et al., Chemoecology, 10:69-80 (2000)). The antennal signals were stored and analyzed on a PC equipped with a serial IDAC interface box and the program EAD ver. 2.5 (Syntech, Hilversum, The Netherlands). The compound 1-octen-3-ol (known attractant for many flies and mosquitoes) was included in most of the synthetic mixtures, as a positive control."}, "[2]": {"test_system": "female antennae of sand fly Phlebotomus papatasi and mosquitoes Aedes aegypti, Anopheles gambiae, Anopheles stephensi", "test": "GC-EAD responses of sand fly and three mosquitoes to synthetic mixtures", "conditions": "about 100 ng of each compound, on one or more of the sand fly or the mosquitoes, FIGS. 9 and 10", "description": "The GC-EAD responses of female antennae of the sand fly, Phlebotomus papatasi, and three species of mosquitoes, Aedes aegypti, Anopheles gambiae, and anopheles stephensi were tested on a synthetic mixture of 1-octen-3-ol, six sesquiterpene hydrocarbons including (+)-longipinene, (−)-isolongifolene, (+)-longifolene, β-caryophyllene, isolongifolenone, and α-humulene, and several known insect repellents including ZE-nepetalactone, EZ-nepetalactone, with about 100 ng of each compound in the mixture.\nThe GC-EAD responses of female antennae of the sand fly, Phlebotomus papatasi, and three species mosquitoes, Aedes aegypti, Anopheles gambiae, and anopheles stephensi were tested on a synthetic mixture of 1-octen-3-ol, linalool, β-caryophyllene oxide, isocaryophyllene, β-caryophyllene, and α-humulene, and DEET, with about 100 ng of each compound in the mixture.\nas §1, with “control. The results of the experiments are shown in FIGS. 1-10 and described above.” for “control.”"}, "[3]": {"test_system": "housefly (Musca domestica) antenna", "test": "GC-EAD antennal response, housefly", "conditions": "female housefly antenna; synthetic mixture, about 100 ng of each compound; FIG. 3", "source_text": "The sesquiterpene hydrocarbons and their derivatives disclosed herein have been identified as suitable insect repellents by testing via a gas chromatographic-electroantennographic detection (GC-EAD) method as described in Example 1 below. This method can be used to efficiently screen for potentially behaviorally active compounds, including insect repellents, attractants, deterrents, or attraction-inhibitors from complex natural sources or synthetic mixtures.\nThe GC-EAD responses of the female housefly antenna were tested on a synthetic mixture of 1-octen-3-ol, a known attractant used as a positive control, and representative sesquiterpene hydrocarbons and derivatives, (+)-longipinene, (−)-isolongifolene, (+)-longifolene, β-caryophyllene, α-humulene, and isolongifolenone, with about 100 ng of each compound in the mixture.\nThe GC-EAD responses of the male housefly antenna were tested on a synthetic mixture of 1-octen-3-ol, and two representative sesquiterpenes, β-caryophyllene and isocaryophyllene, with about 100 ng of each compound in the mixture.\nas §1, with “control. The results of the experiments are shown in FIGS. 1-10 and described above.” for “control.”"}, "[4]": {"test_system": "female mosquito Culex pipiens antenna", "test": "GC-EAD antennal response, Culex pipiens", "conditions": "female Culex pipiens antennae; about 100 ng of each compound; responses weak, but repeatable; FIGS. 7 and 8", "description": "The GC-EAD responses of the female mosquito Culex pipiens antenna were tested on a synthetic mixture of 1-octen-3-ol, and two sesquiterpene hydrocarbons, β-caryophyllene and isocaryophyllene, with about 100 ng of each compound in the mixture.\nThe GC-EAD responses of the female mosquito Culex pipiens antenna were tested on a synthetic mixture of 1-octen-3-ol, and representative sesquiterpene hydrocarbons and derivatives including (+)-longipinene, (−)-isolongifolene, (+)-longifolene, β-caryophyllene, and isolongifolenone, with about 100 ng of each compound in the mixture.\nAntennal responses were weak, but repeatable, thus are considered to be true responses.\nas §1, with “control. The results of the experiments are shown in FIGS. 1-10 and described above.” for “control.”"}, "Anopheles stephensi [5]": {"test_system": "Anopheles stephensi", "test": "Y-tube olfactometer behavioral bioassay (spatial repellency)", "format": "in vivo", "description": "(§2) Aegypti and An. stephensi, and one species of sand fly, P. papatasi. Both the mosquitoes and the sand flies used in the study were from colonies maintained at the Walter Reed Army Institute of Research, Department of Entomology, Silver Spring, Md. This Y-tube bioassay system, equipped with CO2-enriched air (ca. 1 l/min) as an attractant, was made from three clear acrylic tubes (4″ diameter; 12″ length) with symmetrical 120° angles among the three tube arms; and a screen butterfly valve on the top part of the bottom releasing tube. These spatial repellency tests were carried out during 8:00 am-12:00 pm (photophase) time period for Ae. aegypti and 1:00-5:00 pm (shifted scotophase) time period for the species of night-flying mosquitoes and sand fly in a temperature and humidity controlled testing room (23-25° C. and 20-40% RH). Female mosquitoes or sand flies were stored at ˜25-26° C., 50-89% RH, 12:12 hr. (L/D), fed with 10% sucrose solution before testing. The candidate chemical (individual or mixture) dispenser and a blank control were placed in the upper left or right arm of the Y-tube before releasing 25-40, 6 to 10 day-old female mosquitoes (or 3 to 10 day-old sand flies) into the bottom tube via a small hole. After a 30-60 sec acclimation period, the butterfly screen valve (door) on the top of the bottom tube was opened. After 10 min., the valve was closed and the numbers of mosquitoes or sand flies in each arm (including the bottom tube) were counted. In order to minimize the position effect, the same experiment was repeated once with the treatment and blank control arms shifted using a new (clean) Y-tube olfactometer and a new batch of mosquitoes/sand flies. Data from these two replicates were pooled for χ2 goodness of fit test (df=1) between the treatment and blank control."}, "Aedes aegypti [6]": {"test_system": "Aedes aegypti", "test": "Y-tube olfactometer behavioral bioassay (spatial repellency)", "format": "in vivo", "description": "as §2"}, "Anopheles stephensi [7]": {"test_system": "Anopheles stephensi", "test": "K&D module behavioral bioassay (topical repellency, biting)", "format": "in vivo", "description": "(§3) The bioassays were conducted with a six-cell in vitro K&D module system, as disclosed in Klun and Debboun, J. Med. Entomol. 37:177-181 (2000), loaded with an “artificial blood” (CPDA+ATP) solution.\n(§4) Clove essential oil, patchouli oil, and EAD-active potential repellents, β-caryophyllene, isocaryophyllene, (+)-longifolene, and their 1:1:1 mixture, plus α-guaiene, caryophyllene oxide, and a β-caryophyllene ketone, were tested using the six-cell in vitro K&D module system (Klun and Debboun, J. Med. Entomol. 37:177-181 (2000)) loaded with an “artificial blood” (CPDA+ATP) solution on both Ae. aegypti and An. stephensi in a dose-response fashion. The K&D in vitro assay system has three components: (1) a Plexiglas™ 29.7 cm.×7.1 cm K&D module composed of six adjacent cells, each designed to hold mosquitoes and each having a rectangular 3×4 cm floor hole that is opened and closed by a sliding door; (2) a Plexiglas™ six-well 29.7 cm×7.1 cm water water-bath warmed (38° C.) reservoir with six 3×4 cm wells designed to match the sliding-door openings of the K&D module base and to contain 6 mL warmed “artificial blood” wells covered with a collagen membrane; and (3) a 29.7 cm×7.1 cm'0.4 cm Teflon® separator having six rectangular openings like the K&D module. The K&D module was connected to a constant temperature water circulator at 38° C. The cells were covered with an Edicol collagen membrane strip. Nylon organdy strips with ink cell patterns were numbered and randomly treated with […] of the tested chemical in ethanol (ethanol alone as blank control), plus DEET (ca. 10 μg/cm^2) as a positive control. This treated nylon organdy strip was placed on top of the collagen membrane. The upper section of the K & D module with the six cells each containing 5 mosquitoes (5-10 d old, starved for 24 hr before testing) was placed on top of the nylon strip. The doors to the cells were slid open so the mosquitoes could be free to feed on the “artificial blood” via the collagen membrane if they were hungry. The experiments were allowed to run for 3 minutes, and the number of mosquitoes feeding (biting) in each cell was recorded. After each experiment, the nylon and collagen strips were removed. The CPDA+ATP solution was removed and allowed to dry prior to starting the next experiment. The experiments on each chemical and each mosquito species were run three times before the bottom section with circulated water was cleaned prior to use again."}, "Aedes aegypti [8]": {"test_system": "Aedes aegypti", "test": "K&D module behavioral bioassay (topical repellency, biting)", "format": "in vivo", "description": "as §3, §4"}, "[9]": {"conditions": "Anopheles stephensi females, release rate per chemical (β-Caryophyllene 10 mg/day), 10 min"}, "[10]": {"conditions": "Aedes aegypti females, release rate per chemical (1-60 mg/day), 10 min"}, "[11]": {"conditions": "10 μg/cm^2, DEET values are the positive control run with the chemical"}}, "data": [{"smiles": "C=C1C2CCC3(C)C(C2)C(C)CCC13C", "note": "(stereo not shown) [seychellene]", "values": [{"measurement": "GC-EAD antennal activity", "setting": "[1]", "value": "elicited EAD-activity"}]}, {"smiles": "CC1CCC2=C1CC1CCC2(C)C1(C)C", "note": "(stereo not drawn) [β-patchoulene, β-Patchoulene]", "values": [{"measurement": "GC-EAD antennal activity", "setting": "[1]", "value": "elicited EAD-activity"}]}, {"smiles": "CC1=CCC2CC3C(C)CCC13C2(C)C", "note": "(stereo not drawn) [α-patchoulene, α-Patchoulene]", "values": [{"measurement": "GC-EAD antennal activity", "setting": "[1]", "value": "elicited EAD-activity"}]}, {"smiles": "CC1(C)C2=CC(=O)CC(C)(C)[C@]23CC[C@H]1C3", "note": "[isolongifolenone, reference compound]", "values": [{"measurement": "GC-EAD antennal activity", "setting": "[2]", "value": "does not appear to have elicited antennal activity"}, {"measurement": "GC-EAD antennal activity", "setting": "[3]", "value": "inactive"}]}, {"smiles": "CC1=CC[C@@H]2[C@H]3[C@H]1[C@@]2(C)CCCC3(C)C", "note": "[(+)-longipinene, (+)-Longipinene]", "values": [{"measurement": "GC-EAD antennal activity", "setting": "[4]", "value": "active"}, {"measurement": "GC-EAD antennal activity", "setting": "[2]", "value": "antennally active"}, {"measurement": "GC-EAD antennal activity", "setting": "[3]", "value": "active"}]}, {"smiles": "C=C(C)[C@@H]1CCC(C)=C2CC[C@H](C)[C@@H]2C1", "note": "[α-Bulnesene, α-bulnesene]", "values": [{"measurement": "GC-EAD antennal activity", "setting": "[1]", "value": "elicited EAD-activity"}, {"measurement": "Number of mosquitoes in each arm: Repellent", "setting": "Anopheles stephensi [5]; Anopheles stephensi females, release rate per chemical (1-60 mg/day; β-Caryophyllene 10 mg/day), 10 min", "value": 13}, {"measurement": "Number of mosquitoes in each arm: Blank", "setting": "Anopheles stephensi [5]; [9]", "value": 33}, {"measurement": "Number of mosquitoes in each arm: Bottom", "setting": "Anopheles stephensi [5]; [9]", "value": 25}, {"measurement": "SAI (Spatial Activity Index)", "setting": "Anopheles stephensi [5]; Anopheles stephensi, β-Caryophyllene 10 mg/day", "value": 0.43}, {"measurement": "Number of mosquitoes in each arm: Blank", "setting": "Aedes aegypti [6]; [10]", "value": 35}, {"measurement": "Number of mosquitoes in each arm: Bottom", "setting": "Aedes aegypti [6]; [10]", "value": 24}, {"measurement": "Number of mosquitoes in each arm: Repellent", "setting": "Aedes aegypti [6]; Aedes aegypti females, release rate per chemical (1-60 mg/day), 10 min, two replicates pooled", "value": 11}, {"measurement": "SAI (Spatial Activity Index)", "setting": "Aedes aegypti [6]; Aedes aegypti, (Nc − Nt)/(Nc + Nt), −1 to 1, zero indicating no response", "value": 0.52}, {"measurement": "% of biting (±SE) (N = 3)", "setting": "Anopheles stephensi [7]; [11]", "value": "87 ± 7", "unit": "b %"}, {"measurement": "% of biting (±SE) (N = 3)", "setting": "Anopheles stephensi [7]; 100 μg/cm^2", "value": "0 ± 0", "unit": "a %"}, {"measurement": "% of biting (±SE) (N = 3)", "setting": "Anopheles stephensi [7]; 500 μg/cm^2", "value": "0 ± 0", "unit": "a %"}, {"measurement": "% of biting (±SE) (N = 3)", "setting": "Anopheles stephensi [7]; 1000 μg/cm^2", "value": "0 ± 0", "unit": "a %"}, {"measurement": "% of biting (±SE) (N = 3)", "setting": "Aedes aegypti [8]; [11]", "value": "73 ± 7", "unit": "b %"}, {"measurement": "% of biting (±SE) (N = 3)", "setting": "Aedes aegypti [8]; 100 μg/cm^2", "value": "0 ± 0", "unit": "a %"}, {"measurement": "% of biting (±SE) (N = 3)", "setting": "Aedes aegypti [8]; 500 μg/cm^2", "value": "0 ± 0", "unit": "a %"}, {"measurement": "% of biting (±SE) (N = 3)", "setting": "Aedes aegypti [8]; 1000 μg/cm^2", "value": "0 ± 0", "unit": "a %"}]}]}
